Earlier results in patent US8298573B2, “Stable sterile filterable liposomal encapsulated taxane and other antineoplastic drugs” (priority 2003, dated 2012).

CC(=O)O[C@H]1C(=O)[C@@]2(C)[C@H]([C@H](OC(=O)c3ccccc3)[C@]3(O)C[C@H](OC(=O)[C@H](O)[C@@H](NC(=O)c4ccccc4)c4ccccc4)C(C)=C1C3(C)C)[C@]1(OC(C)=O)CO[C@@H]1C[C@@H]2O [paclitaxel]
solubility in water: extremely low
